Laboratory results taken from patent publication US20250288573A1 (H. LEE MOFFITT CANCER CENTER AND RESEARCH INSTITUTE, INC., priority 2018, published 2025).
Where two headings read alike, the source gives them in different places.

What was measured:
[1] = molecular target: T1, CRBN (Homo sapiens, UniProt Q96SW2); test: Western blot for expression of CRBN relative to vinculin in human T cells (CRBN degradation); type: cell-based; conditions: read-out: Relative Density of CRBN (% of DMSO); for remaining activity at 0.01 µM: 24 h, 10nM, human T cells, 24 hours
T1 construct: endogenous in cells; host or cells: primary human T cells / CD8+ T cells from peripheral blood
T1 sequence (Q96SW2 whole entry): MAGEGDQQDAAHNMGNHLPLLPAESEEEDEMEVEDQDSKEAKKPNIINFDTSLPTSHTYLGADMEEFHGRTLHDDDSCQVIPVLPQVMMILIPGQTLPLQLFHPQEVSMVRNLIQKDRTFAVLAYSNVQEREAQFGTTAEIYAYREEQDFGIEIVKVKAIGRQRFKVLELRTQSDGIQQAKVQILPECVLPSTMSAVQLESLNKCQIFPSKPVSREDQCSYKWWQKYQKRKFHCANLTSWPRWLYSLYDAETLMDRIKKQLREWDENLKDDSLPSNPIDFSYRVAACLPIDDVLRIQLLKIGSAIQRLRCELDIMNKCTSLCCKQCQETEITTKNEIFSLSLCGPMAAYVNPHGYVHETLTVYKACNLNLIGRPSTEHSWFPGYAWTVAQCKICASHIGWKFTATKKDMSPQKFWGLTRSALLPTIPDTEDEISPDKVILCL
Source text: Bortez=bortezomib; MG132=proteasome inhibitor; MLN4924=NEDD8 inhibitor.
This assay is a standard Western blot assay for expression of CRBN relative to vinculin.
[…] 0.1 percent DMSO was used as a vehicle control.

[2] = molecular target: cereblon (CRBN) (Homo sapiens, UniProt Q96SW2); test: Kd and % inhibition from FI; type: binding; conditions: for inhibition at 200 µM: read-out: % inhibition @ 200 uM from *FI
Chain of cereblon (CRBN) (Q96SW2 whole entry, species assumed): as the sequence (Q96SW2 whole entry) above

[3] = FI, read-out: Kd (FI) (converted)
[4] = cell does not state FI or ITC, read-out: Kd (A) FI/ITC

Row | SMILES | remaining activity at 10 µM [1] | remaining activity at 0.01 µM [1] | % inhibition @ 200 uM from *FI [2] | inhibition at 200 µM [2] | Kd [2, 3] | Kd [2, 4]
1 | O=C1CCC(N2C(=O)c3cccc(NC(=O)CCCC(=O)Nc4cccc5c4C(=O)N(C4CCC(=O)NC4=O)C5=O)c3C2=O)C(=O)N1 (centres unmarked) [EC1-117, N^1,N^5-bis(2-(2,6-Dioxopiperidin-3-yl)-1,3-dioxoisoindolin-4-yl)glutaramide] | 19.8% | 114% |  | 47.9 ± 11% |  | 
2 | O=C1CCC(N2C(=O)c3cccc(NC(=O)[C@H]4CC[C@@H](C(=O)Nc5cccc6c5C(=O)N(C5CCC(=O)NC5=O)C6=O)CC4)c3C2=O)C(=O)N1 (stereo partly drawn) [EC1-133, (cis)-N^1,N^4-bis(2-(2,6-Dioxopiperidin-3-yl)-1,3-dioxoisoindolin-4-yl)cyclohexane-1,4-dicarboxamide] | 10.3% | 119% | n.b. |  |  | 
3 | O=C1CCC(N2C(=O)c3cccc(NC(=O)[C@H]4CC[C@H](C(=O)Nc5cccc6c5C(=O)N(C5CCC(=O)NC5=O)C6=O)CC4)c3C2=O)C(=O)N1 (stereo partly drawn) [EC1-135, (trans)-N^1,N^4-bis(2-(2,6-Dioxopiperidin-3-yl)-1,3-dioxoisoindolin-4-yl)cyclohexane-1,4-dicarboxamide] | 36.5% | 134% | n.b. |  |  | 
4 | Cc1sc2c(c1C)C(c1ccc(Cl)cc1)=N[C@H](CC(=O)NCCCCC(=O)NC1CCC(=O)NC1=O)c1nnc(C)n1-2 (some centres unmarked) [EC2-092] |  |  |  |  |  | 226 ± 21.6 µM
5 | Cc1ncsc1-c1ccc(CNC(=O)[C@@H]2C[C@@H](O)CN2C(=O)[C@@H](NC(=O)COCCOCCOCCOCCCc2cccc3c2CN(C2CCC(=O)NC2=O)C3=O)C(C)(C)C)cc1 (stereo partly drawn) [SR3-108, (2S,4R)-1-((2S)-2-(tert-Butyl)-18-(2-(2,6-dioxopiperidin-3-yl)-1-oxoisoindolin-4-yl)-4-oxo-6,9,12,15-tetraoxa-3-azaoctadecanoyl)-4-hydroxy-N-(4-(4-methylthiazol-5-yl)benzyl)pyrrolidine-2-carboxamide] |  |  |  |  | 13.6 ± 1.51 µM | 
6 | Cc1sc2c(c1C)C(c1ccc(Cl)cc1)=N[C@H](CC(=O)NCCCCC(=O)N[C@H]1CC(=O)NC1=O)c1nnc(C)n1-2 [XS01-089] |  |  |  |  |  | 353 ± 108 µM
7 | O=C1CCC(N2Cc3c(NC(=O)CCCc4cn(CC(=O)Nc5cccc6c5C(=O)N(C5CCC(=O)NC5=O)C6=O)nn4)cccc3C2=O)C(=O)N1 (centres unmarked) [XS01-122, 4-(1-(2-((2-(2,6-Dioxopiperidin-3-yl)-1,3-dioxoisoindolin-4-yl)amino)-2-oxoethyl)-1H-1,2,3-triazol-4-yl)-N-(2-(2,6-dioxopiperidin-3-yl)-1-oxoisoindolin-4-yl)butanamide] | 151% | 255% |  |  |  | 
8 | Cc1nc2cccc(NC(=O)Cn3cc(CCCC(=O)Nc4cccc5c4CN(C4CCC(=O)NC4=O)C5=O)nn3)c2c(=O)n1C1CCC(=O)NC1=O (centres unmarked) [XS01-123, N-(2-(2,6-Dioxopiperidin-3-yl)-1-oxoisoindolin-4-yl)-4-(1-(2-((3-(2,6-dioxopiperidin-3-yl)-2-methyl-4-oxo-3,4-dihydroquinazolin-5-yl)amino)-2-oxoethyl)-1H-1,2,3-triazol-4-yl)butanamide] | 151% | 243% |  |  |  | 
9 | O=C1CCC(N2Cc3c(NC(=O)CCc4cn(CC(=O)Nc5cccc6c5C(=O)N(C5CCC(=O)NC5=O)C6=O)nn4)cccc3C2=O)C(=O)N1 (centres unmarked) [XS01-125, 3-(1-(2-((2-(2,6-Dioxopiperidin-3-yl)-1,3-dioxoisoindolin-4-yl)amino)-2-oxoethyl)-1H-1,2,3-triazol-4-yl)-N-(2-(2,6-dioxopiperidin-3-yl)-1-oxoisoindolin-4-yl)propanamide] | 153% | 196% |  |  |  | 
10 | O=C1CCC(N2C(=O)c3cccc(NC(=O)CCc4cn(CC(=O)Nc5cccc6c5C(=O)N(C5CCC(=O)NC5=O)C6=O)nn4)c3C2=O)C(=O)N1 (centres unmarked) [XS01-126, N-(2-(2,6-Dioxopiperidin-3-yl)-1,3-dioxoisoindolin-4-yl)-3-(1-(2-((2-(2,6-dioxopiperidin-3-yl)-1,3-dioxoisoindolin-4-yl)amino)-2-oxoethyl)-1H-1,2,3-triazol-4-yl)propanamide] | 131% | 207% |  |  |  | 
11 | Cc1nc2cccc(NC(=O)Cn3cc(CCC(=O)Nc4cccc5c4CN(C4CCC(=O)NC4=O)C5=O)nn3)c2c(=O)n1C1CCC(=O)NC1=O (centres unmarked) [XS01-127, N-(2-(2,6-Dioxopiperidin-3-yl)-1-oxoisoindolin-4-yl)-3-(1-(2-((3-(2,6-dioxopiperidin-3-yl)-2-methyl-4-oxo-3,4-dihydroquinazolin-5-yl)amino)-2-oxoethyl)-1H-1,2,3-triazol-4-yl)propanamide] | 175% | 228% |  |  |  | 
12 | Cc1nc2cccc(NC(=O)CCc3cn(CC(=O)Nc4cccc5nc(C)n(C6CCC(=O)NC6=O)c(=O)c45)nn3)c2c(=O)n1C1CCC(=O)NC1=O (centres unmarked) [XS01-132, N-(3-(2,6-dioxopiperidin-3-yl)-2-methyl-4-oxo-3,4-dihydroquinazolin-5-yl)-3-(1-(2-((3-(2,6-dioxopiperidin-3-yl)-2-methyl-4-oxo-3,4-dihydroquinazolin-5-yl)amino)-2-oxoethyl)-1H-1,2,3-triazol-4-yl)propanamide] | 98.3% | 199% |  |  |  | 

Second part, the compound after the results:

Row | remaining activity at 10 µM [1] | remaining activity at 0.01 µM [1] | % inhibition @ 200 uM from *FI [2] | inhibition at 200 µM [2] | Kd [2, 3] | Kd [2, 4] | SMILES
13 | 11.7% | 44.2% | n.b. |  |  |  | O=C1CCC(N2C(=O)c3cccc(NC(=O)CCCCCCC(=O)Nc4cccc5c4C(=O)N(C4CCC(=O)NC4=O)C5=O)c3C2=O)C(=O)N1 (centres unmarked)
14 | 6.19% | 29.8% | n.b |  |  |  | O=C1CCC(N2C(=O)c3cccc(NC(=O)CCCCCCCC(=O)Nc4cccc5c4C(=O)N(C4CCC(=O)NC4=O)C5=O)c3C2=O)C(=O)N1 (centres unmarked)
15 | 4.91% | 30.5% |  | 18 ± 20% |  |  | O=C1CCC(N2C(=O)c3cccc(NC(=O)CCCCCC(=O)Nc4cccc5c4C(=O)N(C4CCC(=O)NC4=O)C5=O)c3C2=O)C(=O)N1 (centres unmarked) [EC1-119, N^1,N^7-bis(2-(2,6-Dioxopiperidin-3-yl)-1,3-dioxoisoindolin-4-yl)heptanediamide]
16 | 16.8% | 95.3% |  | 23.2 ± 20% |  |  | O=C1CCC(N2C(=O)c3cccc(NC(=O)CCCCC(=O)Nc4cccc5c4C(=O)N(C4CCC(=O)NC4=O)C5=O)c3C2=O)C(=O)N1 (centres unmarked) [EC1-120, N^1,N^6-bis(2-(2,6-Dioxopiperidin-3-yl)-1,3-dioxoisoindolin-4-yl)adipamide]
17 | 33% | 33.4% | n.b. |  |  |  | O=C1CCC(N2C(=O)c3cccc(NC(=O)CCCCCCCCC(=O)Nc4cccc5c4C(=O)N(C4CCC(=O)NC4=O)C5=O)c3C2=O)C(=O)N1 (centres unmarked) [EC1-132, N^1,N^10-bis(2-(2,6-Dioxopiperidin-3-yl)-1,3-dioxoisoindolin-4-yl)decanediamide]
18 | 7.19% | 91.2% |  | 71.6 ± 2% | 22.1 ± 1.47 µM |  | O=C1CCC(N2Cc3c(NC(=O)CCCCCC(=O)Nc4cccc5c4CN(C4CCC(=O)NC4=O)C5=O)cccc3C2=O)C(=O)N1 (centres unmarked) [EC1-141, N^1,N^7-Bis(2-(2,6-dioxopiperidin-3-yl)-1-oxoisoindolin-4-yl)heptanediamide]
19 | 2.97% | 73.8% |  | 83.6 ± 4% | 23.6 ± 2.55 µM |  | O=C1CCC(N2Cc3c(NC(=O)CCCC(=O)Nc4cccc5c4CN(C4CCC(=O)NC4=O)C5=O)cccc3C2=O)C(=O)N1 (centres unmarked) [EC1-148, N^1,N^5-Bis(2-(2,6-dioxopiperidin-3-yl)-1-oxoisoindolin-4-yl)glutaramide]
20 | 1.74% | 76.3% |  | 87.3 ± 2% | 22.8 ± 0.55 µM |  | O=C1CCC(N2Cc3c(NC(=O)CCCCC(=O)Nc4cccc5c4CN(C4CCC(=O)NC4=O)C5=O)cccc3C2=O)C(=O)N1 (centres unmarked) [EC1-149, N^1,N^6-Bis(2-(2,6-dioxopiperidin-3-yl)-1-oxoisoindolin-4-yl)adipamide]
21 | 6.33% | 99.3% |  | 57.2 ± 10% | 18.3 ± 1.54 µM |  | O=C1CCC(N2Cc3c(NC(=O)CCCCCCC(=O)Nc4cccc5c4CN(C4CCC(=O)NC4=O)C5=O)cccc3C2=O)C(=O)N1 (centres unmarked) [EC1-150, N^1,N^8-Bis(2-(2,6-dioxopiperidin-3-yl)-1-oxoisoindolin-4-yl)octanediamide]
22 | 32% | 137% |  | 46.7 ± 9% | 14.2 ± 3.16 µM |  | O=C1CCC(N2Cc3c(NC(=O)CCCCCCCC(=O)Nc4cccc5c4CN(C4CCC(=O)NC4=O)C5=O)cccc3C2=O)C(=O)N1 (centres unmarked) [EC1-151, N^1,N^9-Bis(2-(2,6-dioxopiperidin-3-yl)-1-oxoisoindolin-4-yl)nonanediamide]
23 | 28.2% | 133% |  | 47.9 ± 2% | 15.5 ± 2.26 µM |  | O=C1CCC(N2Cc3c(NC(=O)CCCCCCCCC(=O)Nc4cccc5c4CN(C4CCC(=O)NC4=O)C5=O)cccc3C2=O)C(=O)N1 (centres unmarked) [EC1-152, N^1,N^10-Bis(2-(2,6-dioxopiperidin-3-yl)-1-oxoisoindolin-4-yl)decanediamide]
24 | 106% | 225% |  |  |  |  | O=C1CCC(N2Cc3c(NC(=O)CCc4cn(CC(=O)Nc5cccc6c5CN(C5CCC(=O)NC5=O)C6=O)nn4)cccc3C2=O)C(=O)N1 (centres unmarked) [XS01-113, N-(2-(2,6-dioxopiperidin-3-yl)-1-oxoisoindolin-4-yl)-3-(1-(2-((2-(2,6-dioxopiperidin-3-yl)-1-oxoisoindolin-4-yl)amino)-2-oxoethyl)-1H-1,2,3-triazol-4-yl)propanamide]
